The series is described as follows: physchem. As to conditions: pH 7.4 buffer.

Converted amounts (≈) assume the structure as drawn.

As a reminder, the thermodynamic solubility is solubility found after equilibrating the solid with the medium. Turning to `C[C@@H]1CN(c2nc(N3CCOCC3)c3ccc(-c4ccccc4)nc3n2)C[C@H](C)O1`, the thermodynamic solubility was determined as 1.8 µM (≈ 0.73 µg/mL).
Compound `Cn1cnc(-c2cccc(NC(=O)Nc3cc(C(F)(F)F)ccc3F)c2)c1-c1cc2c(N)ncnc2s1` showed a solubility (thermodynamic) of 0.5 µM (≈ 0.264 µg/mL). This solubility thermodynamic lies about 3.6-fold lower than the previous one.
The result for `O=C(c1ccc(F)cc1)C1CCN(C(=O)c2ccc(Cl)c(Cl)c2)CC1` reads 0.8 µM (≈ 0.304 µg/mL).
In the case of `CC(C)(C)Cn1c2ccccc2c2cc(NC(=O)N3CCOCC3)ccc21`, the thermodynamic solubility stood at 0.1 µM (≈ 0.0365 µg/mL).
Regarding `CC(=O)N1CCC(n2cc(-c3cnc(N)c(-c4nc5ccccc5o4)c3)cn2)CC1`, the solubility (thermodynamic) was 1.7 µM (≈ 0.684 µg/mL).
Turning to `CN(c1ccnc(Nc2cc(N3CCOCC3)nc(N3CCOCC3)c2)n1)c1cccc2[nH]ncc12`, the solubility (thermodynamic) was found to be 0.8 µM (≈ 0.39 µg/mL).
The result for `Cc1nc(O)c2cc(-c3ccccc3)sc2n1` reads 1.8 µM (≈ 0.436 µg/mL).
To `O=C(Cc1ccccc1)Nc1ccc(N2CCCC2)cc1` belongs 1.1 µM (≈ 0.308 µg/mL); to `Cc1ccnc(NC(c2ccccn2)c2c(C)[nH]c3ccccc23)c1` (centres undefined), 1.4 µM (≈ 0.46 µg/mL).
The result for `Cc1ccccc1Oc1cc(-n2ncc(Cl)c(Cl)c2=O)ncn1` reads 1 µM (≈ 0.349 µg/mL).
Turning to `Clc1ccc2c(c1)Nc1ccccc1S2`, the thermodynamic solubility was 0.7 µM (≈ 0.164 µg/mL).
As for `Cc1ccc(Nc2nc(C)nc3c2oc2ccccc23)cc1`, the solubility (thermodynamic) was 0.5 µM (≈ 0.145 µg/mL).
The result for `O=S(=O)(c1ccc(F)cc1)N1CCCN(c2nccc(C(F)(F)F)n2)CC1` reads 0.9 µM (≈ 0.364 µg/mL); that for `CCOc1ccc(NCC(=O)c2ccc(C)cc2)cc1`, 1.2 µM (≈ 0.323 µg/mL).
Consider `COCCOc1cc2nncc(Nc3cc(O)c(Cl)cc3F)c2cc1OC`, for which the solubility (thermodynamic) came to 0.1 µM (≈ 0.0394 µg/mL).
To `c1ccc(-c2nc(-c3ccccc3)c(-c3ccccc3)o2)cc1` belongs 1.9 µM (≈ 0.565 µg/mL); to `COc1ccc(N(C)C(=O)c2ccc3nc(-c4ccccc4)c(-c4ccccc4)nc3c2)cc1`, 0.7 µM (≈ 0.312 µg/mL); to `O=C(Cc1ccc2ccccc2c1)Nc1cc(-c2ccc(Cl)cc2)n[nH]1`, 0.5 µM (≈ 0.181 µg/mL).
Turning to `C#CCN(Cc1ccc2nc(CO)[nH]c(=O)c2c1)c1ccc(C(=O)NCc2cccc([N+](=O)[O-])c2)cc1`, the thermodynamic solubility came out at 0.4 µM (≈ 0.199 µg/mL). This solubility thermodynamic and that of the compound before are within 1.5-fold of each other.
As to `O=S(=O)(CC(c1ccccc1)N1CCCCC1)c1ccc(Cl)cc1` (centres undefined), the solubility (thermodynamic) worked out at 0.9 µM (≈ 0.328 µg/mL).
The result for `COC[C@H](C)Oc1cc(Oc2ccc(OC)cc2)cc(C(=O)Nc2ccc(C(=O)O)cn2)c1` reads 1510 µM (≈ 685 µg/mL); that for `CC(C)Cc1nc(-c2ccccc2)c(-c2ccc(CN3CCC(n4c(=O)[nH]c5ccccc54)CC3)cc2)nc1O`, 1.6 µM (≈ 0.854 µg/mL).
The result for `COc1cc(OC2CN(C(C)=O)C2)ccc1Nc1ncc(Cl)c(-c2cnc3ccccn23)n1` reads 1.7 µM (≈ 0.79 µg/mL); that for `COc1cc(N2CCN(C(=O)[C@H](C)O)CC2)ccc1Nc1ncc(Cl)c(-c2cnc3ccccn23)n1`, 1.5 µM (≈ 0.762 µg/mL); that for `COc1cc(N2CCN(C(C)=O)CC2)ccc1Nc1ncc(Cl)c(-c2cnc3ccc(F)cn23)n1`, 1.3 µM (≈ 0.645 µg/mL).
To `O=C(CNC(=O)c1ccc(Cl)cc1)c1ccc(Br)cc1` belongs 0.5 µM (≈ 0.176 µg/mL); to `Clc1cccc(CNc2[nH]nc3cccc(Oc4ccccc4)c23)c1`, 1.3 µM (≈ 0.455 µg/mL); to `COc1cc2ncnc(Oc3ccc(CC(=O)Nc4ccc(N(C)C)cn4)cc3)c2cc1OC`, 1.6 µM (≈ 0.735 µg/mL).
`CCN(C(=O)Cc1ccc(S(C)(=O)=O)cc1)C1CCN(CCC(c2ccccc2)C2CCN(C(C)=O)CC2)CC1` (centres undefined) came in with a thermodynamic solubility of 1510 µM (≈ 859 µg/mL). This solubility thermodynamic lies about 940-fold higher than the previous one.
To `CN(C(=O)Cc1ccc(S(C)(=O)=O)cc1)[C@@H]1CCN(Cc2nc3cc(F)ccc3s2)C[C@@H]1F` belongs 1.8 µM (≈ 0.888 µg/mL); to `COCCOc1cc2ncnc(Nc3ncc(CC(=O)Nc4cccc(F)c4)s3)c2cc1OC`, 0.6 µM (≈ 0.29 µg/mL); to `CCN(CCO)CCCOc1cc2ncnc(Nc3ncc(CC(=O)Nc4cccc(F)c4)s3)c2cc1OC`, 0.6 µM (≈ 0.333 µg/mL).
`COc1cc(Oc2ncnc3cc(OC)c(OC)cc23)ccc1CC(=O)Nc1cn(C)nc1C` displayed a thermodynamic solubility of 1.8 µM (≈ 0.834 µg/mL).
To `COc1ccc2c(Oc3ccc(CC(=O)Nc4cc(C)cc(CN(C)C)c4)c(OC)c3)ccnc2c1` belongs 1.8 µM (≈ 0.874 µg/mL); to `CS(=O)(=O)Cc1cc(N2CC3CCC(C2)O3)nc(-c2ccc3[nH]ccc3c2)n1`, 1.5 µM (≈ 0.598 µg/mL); to `O=C(Nc1ccc(N2CCOCC2)nc1)c1nnc(Nc2ccc(Cl)cc2)o1`, 1 µM (≈ 0.401 µg/mL).
To `CCCCOc1ccc(-c2cc(=O)c3ccccc3[nH]2)cc1` belongs 1.6 µM (≈ 0.469 µg/mL); to `COc1cc(OC2CCOCC2)c2c(Nc3ccc(F)c(Cl)c3)ncnc2c1`, 0.1 µM (≈ 0.0404 µg/mL).
In turn, `COc1cc2ncnc(Nc3cccc(Cl)c3F)c2cc1CN(C(C)C)[C@@H](C)C(N)=O` displayed a thermodynamic solubility of 1 µM (≈ 0.446 µg/mL).
To `CC(C)(C)OC(=O)N1CCN(c2ccc(OCc3ccc(S(C)(=O)=O)cc3)cn2)CC1` belongs 1 µM (≈ 0.448 µg/mL); to `C[C@@H]1CN(c2ncc(OCc3ccc(S(C)(=O)=O)cc3)cn2)[C@@H](C)CN1C(=O)OC(C)(C)C`, 0.9 µM (≈ 0.429 µg/mL).
`Cc1cc(CNc2ncc(Br)c(Nc3cc(CCc4ccccc4)[nH]n3)n2)on1`: the solubility (thermodynamic) was found to be 1.7 µM (≈ 0.772 µg/mL).
To `COc1ccccc1NC(=O)c1cc2ccccc2cc1O` belongs 0.9 µM (≈ 0.264 µg/mL); to `c1csc(-c2n[nH]c3c2Cc2ccccc2-3)c1`, 0.6 µM (≈ 0.143 µg/mL); to `CC(C)(C)CNCCn1c(Sc2nc3cccc(Cl)c3s2)nc2c(N)ncnc21`, 0.5 µM (≈ 0.224 µg/mL).
To `CN(C)C(=O)[C@H](Cc1ccccc1)NC(=O)c1cc2cc(Br)sc2[nH]1` belongs 0.9 µM (≈ 0.378 µg/mL).
To `CN(C)C(=O)[C@H](Cc1ccccc1)NC(=O)c1cc2cc(Cl)sc2[nH]1` belongs 1.5 µM (≈ 0.564 µg/mL); to `CCN1C(=O)C(C)(C)c2cc3[nH]c4c(c3cc21)CCCc1c-4n[nH]c1C`, 0.7 µM (≈ 0.244 µg/mL); to `O=C(CC(c1ccccc1)S(=O)(=O)c1ccccc1)c1ccccc1` (centres undefined), 1.1 µM (≈ 0.385 µg/mL).
Consider `CC(C)CC(C(=O)NCC(=O)CNS(=O)(=O)c1ccccn1)c1cccc(-c2ccccc2)c1` (centres undefined), for which the thermodynamic solubility was found to be 1.2 µM (≈ 0.576 µg/mL).
The compound `CS(=O)(=O)C1(c2cc(N3CCOCC3)nc(-c3cccc4[nH]ccc34)n2)CCOCC1` showed a thermodynamic solubility of 1.8 µM (≈ 0.797 µg/mL).
The compound `CC(C)S(=O)(=O)C1(c2cc(N3CCOCC3)nc(-c3cccc4[nH]ccc34)n2)CC1` showed a solubility (thermodynamic) of 1.5 µM (≈ 0.64 µg/mL).
In the case of `c1ccc(NCc2ccc(CNc3ccccn3)cc2)nc1`, the solubility (thermodynamic) amounted to 0.9 µM (≈ 0.261 µg/mL).
To `CNC(=O)[C@@H](C)Oc1cccc2ncnc(Nc3ccc4c(cnn4Cc4nccs4)c3)c12` belongs 1.3 µM (≈ 0.597 µg/mL); to `C#CCN(Cc1cc2c(=O)[nH]c(C)nc2cc1C)c1ccc(C(=O)NCc2cccc([N+](=O)[O-])c2)c(F)c1`, 0.1 µM (≈ 0.0514 µg/mL).
The compound `COc1ccc(-c2[nH]nc3c2C(=O)c2ccccc2-3)cc1` showed a solubility (thermodynamic) of 0.3 µM (≈ 0.0829 µg/mL).
`Cc1cc(C)cc(-c2[nH]c3ccc(C(C)(C)C(=O)N4C5CCC4CC5)cc3c2CCN(C)CCCCc2ccncc2)c1` yielded a thermodynamic solubility of 0.9 µM (≈ 0.519 µg/mL).
The result for `COc1cc(OC)cc(-c2cc3cnc(N)nc3nc2NC(=O)NC(C)(C)C)c1` reads 0.4 µM (≈ 0.159 µg/mL); that for `COc1cc2c(Nc3ccc(Cc4ccccc4)cc3)c(C#N)cnc2cc1OCCCN1CCOCC1`, 0.6 µM (≈ 0.305 µg/mL).
Turning to `COCCNS(=O)(=O)c1ccc(Nc2nccc(-c3cnc4ccccn34)n2)cc1`, the solubility (thermodynamic) was determined as 0.7 µM (≈ 0.297 µg/mL).
With `COc1cc2ncnc(Nc3ccc4c(ccn4Cc4ccccc4)c3)c2cc1OC`, the thermodynamic solubility was found to be 0.6 µM (≈ 0.246 µg/mL).
The result for `COc1cc2ncc(C#N)c(Nc3ccc(Oc4ccccc4)cc3)c2cc1OC` reads 1.4 µM (≈ 0.556 µg/mL); that for `CN(C)C(=O)[C@H](Cc1ccccc1)NC(=O)c1cc2cc(Br)ccc2[nH]1`, 1 µM (≈ 0.414 µg/mL); that for `COc1cc2c(Nc3ccc(Cl)cc3F)ncnc2cc1OCCn1ccnn1`, 1.5 µM (≈ 0.622 µg/mL).
`Cc1nc(-c2c(C)n(Cc3c(F)cccc3F)c(=O)n(C[C@H](N)c3ccccc3)c2=O)cs1` displayed a solubility (thermodynamic) of 1510 µM (≈ 709 µg/mL). This solubility thermodynamic lies about 1000-fold higher than the previous one.
To `COc1cc2c(Nc3ncc(CC(=O)Nc4cccc(F)c4)s3)ncnc2cc1OCCCN1CCN(C)CC1` belongs 1.8 µM (≈ 1.02 µg/mL); to `COc1cc2c(NC(=O)Nc3ccccc3Cl)ncnc2cc1OCC1CCN(C)CC1`, 0.3 µM (≈ 0.137 µg/mL).
`Cc1cc(C)cc(-c2[nH]c3sc(C(C)(C)C(=O)N4C5CCC4CC5)cc3c2[C@H](C)CNC(=O)N2CCC(c3ccncc3)CC2)c1` displayed a solubility (thermodynamic) of 0.6 µM (≈ 0.383 µg/mL).
To `Cc1cc(C)cc(-c2[nH]c3sc(C(C)(C)C(=O)N4C5CCC4CC5)cc3c2CN2CCN(CC(=O)N3CCCC3)CC2)c1` belongs 1.7 µM (≈ 1.02 µg/mL); to `CNC(=O)[C@@H](C)Oc1cccc2ncnc(Nc3ccc(OCc4ccccn4)c(Cl)c3)c12`, 1.6 µM (≈ 0.742 µg/mL).
`COc1cc2c(Nc3ccc(Oc4ccccc4)cc3)c(C#N)cnc2cc1OCCCN1CCOCC1` returned a solubility (thermodynamic) of 0.9 µM (≈ 0.46 µg/mL).
The result for `C#CCN(Cc1ccc2nc(C)nc(O)c2c1)c1ccc(S(=O)(=O)c2ccccc2)cc1` reads 0.1 µM (≈ 0.0444 µg/mL); that for `COc1cc2c(Nc3cnc(NC(=O)c4ccccc4)nc3)ncnc2cc1OC[C@@H](O)CN1CCCCC1`, 1510 µM (≈ 802 µg/mL).
`C[C@@H](Oc1cccc2ncnc(Nc3ccc4c(cnn4Cc4cccc(F)c4)c3)c12)C(=O)N1CCOCC1` registered a thermodynamic solubility of 0.3 µM (≈ 0.158 µg/mL).
The result for `NC(=O)Nc1sc(-c2ccccc2)cc1C(=O)Nc1ccccc1` reads 0.6 µM (≈ 0.202 µg/mL); that for `CS(=O)(=O)N1CC2(CCN(C(=O)Nc3cnc(-c4ccccc4)cn3)CC2)c2ccccc21`, 0.2 µM (≈ 0.0927 µg/mL).
As for `CS(=O)(=O)c1cccc(CNc2nc(Nc3ccc4c(c3)CCC(=O)N4)ncc2C(F)(F)F)c1`, the solubility (thermodynamic) is 0.5 µM (≈ 0.246 µg/mL).
The compound `NC(=O)Nc1sc(-c2ccccc2)cc1C(=O)NCc1ccccc1` showed a solubility (thermodynamic) of 0.8 µM (≈ 0.281 µg/mL).
The result for `COc1cc2c(Nc3ncc(CC(=O)Nc4ccccc4)s3)ncnc2cc1OCCCN1CCOCC1` reads 0.4 µM (≈ 0.214 µg/mL); that for `COc1cc(-c2cnc(N)c(-c3nc4ccccc4[nH]3)c2)cc(OC)c1OC`, 0.5 µM (≈ 0.188 µg/mL).
To `NC(=O)c1ccccc1NC(=O)Nc1ccc(Cl)c(Cl)c1` belongs 1.5 µM (≈ 0.486 µg/mL); to `CC#CC(=O)Nc1ccc2ncnc(Nc3cccc(Br)c3)c2c1`, 0.8 µM (≈ 0.305 µg/mL).
As to `c1ccc(-c2cnn3cc(-c4ccncc4)cnc23)cc1`, the solubility (thermodynamic) was determined as 0.9 µM (≈ 0.245 µg/mL). This solubility thermodynamic and that of the compound before are within 1.5-fold of each other.
To `COc1cc2ncnc(Nc3ccc(Oc4ccccc4)cc3)c2cc1OC` belongs 0.3 µM (≈ 0.112 µg/mL).

(Values after ChEMBL document CHEMBL3301361, “Experimental in vitro DMPK and physicochemical data on a set of publicly disclosed compounds”.)
